This note sets out measurements from patent US7494996B2 (priority 2000, dated 2009).

One experiment relates to Sphaerotheca fuliginea. The experiment is described as follows: Cucumber Powdery Mildew (CPM) protectant test in the greenhouse. To be noted: 100 is total disease control, 0 is no disease control; for pest or weed control at 300 g/ha: Podosphaera fuliginea, topical, 168 h, read-out: Cucumber Powdery Mildew (CPM) protectant fungicide data, percent control; for Cucumber Powdery Mildew (CPM) protectant fungicide data, percent control: 300 g/ha. Type of experiment: in vivo. In outline:
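Compounds in acetone-methanol-water (1:1:2) sprayed onto cucumber cv. "Bush Champion" (cotyledons plus one true leaf, 13 days old), dried 4 h. Inoculated 1 day later with 2×10^5 spores/ml; disease control (%) rated after 7 days in greenhouse.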

For another experiment, the system named is Mexican Bean Beetle. The experiment is described as follows: Protocol 1 Mexican Bean Beetle (BB) foliar spray test. To be noted: control rated after 48 hours (100 = all larvae dead). Type of experiment: in vivo, Epilachna verivestis. How it is done: (§1) A test solution containing 1250 parts per million (ppm) was prepared by dissolving the test compound in […] of a second solvent (acetone: water, 1:1) to give an acetone:water: methanol system of 50: 40:10.
(§2) The enclosed spraying chamber consisted of a single spray nozzle mounted on a boom moving at a fixed speed and distance over stationary targets. The vertical distance from the nozzle tip to the targets was adjusted to give rates varying from 150 g/ha to 600 g/ha
Individual fully expanded primary lima bean (Phaseolus limensis) leaves were placed bottom side up on moistened pieces of filter paper in Petri dishes. The leaves were sprayed with the test solutions and allowed to dry. The dishes were infested with 5 third instar larvae of the mexican bean beetle, covered with the lids, and held at 27° C. Bean beetle control was rated by visual inspection after 48 hours. […] A rating of 0 indicated no dead larvae and normal feeding. Intermediate control was indicated by intermediate ratings.

A further experiment has as its system Southern Armyworm. The experiment is described as follows: Protocol 1 Southern Armyworm (AW) foliar spray test. Type of experiment: in vivo, Spodoptera eridania. How it is done:
as §1, §2
Individual fully expanded primary lima bean (Phaseolus limensis) leaves were placed bottom side up on moistened pieces of filter paper in Petri dishes. The leaves were sprayed with the test solutions and allowed to dry. The dishes were infested with 5 third instar larvae of the southern armyworm, covered with the lids, and held at 27° C. Armyworm control was rated by visual inspection after 48 hours. […] A rating of 0 indicated no dead larvae and normal feeding. Intermediate control was indicated by intermediate ratings.

The test system of a further experiment is Pyricularia oryzae. In words: whole plant or invertebrate. To be noted: 100 is total disease control, 0 is no disease control; for pest or weed control at 300 g/ha: Pyricularia oryzae, topical, 144 h, read-out: Rice Blast (RB) protectant fungicide data, percent control, protectant, 300 g/ha, greenhouse; for Rice Blast (RB) protectant fungicide data, percent control: 300 g/ha, greenhouse. Type of experiment: in vivo.

A further experiment has as its system Two-Spotted Spider Mite. The experiment is described as follows: Protocol 1 Two-Spotted Spider Mite (MTA) foliar spray test. Type of experiment: in vivo, Tetranychus urticae. The following applies: percentage of mites killed 1-day post-treatment. How it is done: as §1, §2
A pad of moistened cotton was placed in a Petri dish. A 1-inch square section cut from a fully expanded primary lima bean (Phaseolus limensis) leaf was positioned bottom side up on the moist cotton. The leaf square was infested with approximately 50 adult female mites. The dishes were sprayed with the test solutions and held at 27° C. for mortality determination 1-day post-treatment. The percentage of mites killed were rated from 100% (all dead) to 0% (all alive).

As for `CC(C)(C)N1N=C(c2ccc(Cl)cc2)NCC1=O` [Compound 6, 1-t-Butyl-3-(4-chlorophenyl)-4,5-dihydro-1,2,4-triazin-6-one], the pest or weed control at 300 g/ha in the experiment with Sphaerotheca fuliginea worked out at 50%; in the experiment on Pyricularia oryzae, 90%. The molecule further gave a BB in the experiment on Mexican Bean Beetle (Protocol 1, DOSE 300) of 100. Besides, the AW in the experiment on Southern Armyworm (Protocol 1, DOSE 300) came to 0.
On to `Cc1nc(-c2ccc(Cl)cc2)nn(CC(F)(F)F)c1=O` [compound 239], for which, in the experiment with Mexican Bean Beetle (Protocol 1, DOSE 300), the BB is listed as 75. This molecule also registered an AW in the experiment with Southern Armyworm (Protocol 1, DOSE 300) of 0. In addition, the MTA in the experiment with Two-Spotted Spider Mite (Protocol 1, DOSE 300) is on record as 0%.
With `O=C1CNC(c2cc3ccccc3s2)=NN1CC(F)(F)F` [Compound 163], the “Cucumber Powdery Mildew (CPM) protectant fungicide data, percent control” value (shortened to “Cucumber Powdery Mildew … percent control”) in the experiment on Sphaerotheca fuliginea worked out at 0 percent control. Besides, the MTA in the experiment on Two-Spotted Spider Mite (Protocol 1, DOSE 150) is listed as 100%. The “Rice Blast (RB) protectant fungicide data, percent control” value (“Rice Blast … percent control” for short) in the experiment on Pyricularia oryzae is listed as 90 percent control.
For `CCCCn1nc(-c2ccc(Cl)c(Cl)c2)ncc1=O` [Compound 270], in that order: 95 percent control, 0% and 100 percent control.
For `O=C1CNC(c2cc(Cl)ccc2Cl)=NN1CC(F)(F)F` [Compound 70], in that order: 80 percent control, 71% and 80 percent control.
On to `Cn1nc(-c2ccccc2)ncc1=O` [compound 242], for which, in the experiment on Mexican Bean Beetle (Protocol 1, DOSE 300), the BB turned out to be 90. Moreover, the AW in the experiment on Southern Armyworm (Protocol 1, DOSE 300) is 0. Further, the MTA in the experiment with Two-Spotted Spider Mite (Protocol 1, DOSE 300) was 100%.
As for `CCCCCCn1nc(-c2ccc(Cl)cc2)ncc1=O` [Compound 262], the “Cucumber Powdery Mildew … percent control” value in the experiment on Sphaerotheca fuliginea was 80 percent control. For the same molecule, the MTA in the experiment with Two-Spotted Spider Mite (Protocol 1, DOSE 150) worked out at 0%. The “Rice Blast … percent control” value in the experiment on Pyricularia oryzae was determined as 85 percent control.
For the molecule `C=COC(=O)N1CC(=O)N(CCCC)N=C1c1cc(Cl)cc(Cl)c1` [Compound 127], in the experiment with Sphaerotheca fuliginea, the “Cucumber Powdery Mildew … percent control” value amounted to 50 percent control. Further, the MTA in the experiment on Two-Spotted Spider Mite (Protocol 1, DOSE 150) stood at 95%. Besides, the “Rice Blast … percent control” value in the experiment on Pyricularia oryzae stood at 95 percent control.
The matching figures for `CCCCN1N=C(c2ccc(Cl)c(Cl)c2)NCC1=O` [Compound 101]: 80 percent control, 0% and 100 percent control.
As to `COC(=O)C(=O)N1CC(=O)N(CC(F)(F)F)N=C1c1cc(Cl)cc(Cl)c1` [Compound 123], in the experiment on Sphaerotheca fuliginea, the “Cucumber Powdery Mildew … percent control” value stood at 50 percent control. This molecule displayed an MTA in the experiment on Two-Spotted Spider Mite (Protocol 1, DOSE 150) of 0%. The “Rice Blast … percent control” value with Pyricularia oryzae is reported as 95 percent control.
For `O=c1cnc(-c2ccc(Cl)cc2)nn1Cc1ccc(Cl)s1` [Compound 266], in that order: 50 percent control, 0% and 90 percent control.
For `CCCCn1nc(-c2cc(Cl)cc(Cl)c2)ncc1=O` [Compound 271], in that order: 50 percent control, 93% and 99 percent control.
On to `CCCCN1N=C(c2cccc(Cl)c2)NCC1=O` [Compound 110], for which, in the experiment with Sphaerotheca fuliginea, the “Cucumber Powdery Mildew … percent control” value came to 90 percent control. Further, the MTA in the experiment on Two-Spotted Spider Mite (Protocol 1, DOSE 150) is given as 100%. The “Rice Blast … percent control” value in the experiment with Pyricularia oryzae worked out at 99 percent control.
Regarding `O=c1cnc(-c2ccccc2)nn1CC(F)(F)F` [Compound 7, 1-(2,2,2-trifluoroethyl)-3-phenyl-1,2,4-triazin-6-one], the results for the pest or weed control at 300 g/ha in the experiment with Sphaerotheca fuliginea and with Pyricularia oryzae were 75% and 95%, respectively. In the experiment with Mexican Bean Beetle (Protocol 1, DOSE 300), this molecule had a BB of 100. The AW with Southern Armyworm (Protocol 1, DOSE 300) was 0.
Turning to `CCCCN1N=C(c2ccc(F)c(F)c2)NCC1=O` [Compound 69], the “Cucumber Powdery Mildew … percent control” value in the experiment on Sphaerotheca fuliginea was 80 percent control. The MTA in the experiment with Two-Spotted Spider Mite (Protocol 1, DOSE 150) was determined as 68%. The “Rice Blast … percent control” value in the experiment on Pyricularia oryzae turned out to be 95 percent control.
For `C=CCOC(=O)N1CC(=O)N(CCCC)N=C1c1cc(Cl)cc(Cl)c1` [Compound 135], in that order: 50 percent control, 43% and 90 percent control.
The matching figures for `CCN1N=C(c2ccc(Cl)c(Cl)c2)NCC1=O` [Compound 100]: 80 percent control, 25% and 99 percent control.
Turning to `CCC#CCn1nc(-c2ccc(Cl)cc2)ncc1=O` [Compound 8, 1-(2-pentynyl)-3-(4-chlorophenyl)-1,2,4-triazin-6-one], the figures for the pest or weed control at 300 g/ha in the experiment with Sphaerotheca fuliginea and in the experiment on Pyricularia oryzae were 90% and 99%, respectively. This molecule also had a BB with Mexican Bean Beetle (Protocol 1, DOSE 300) of 0. In the experiment with Southern Armyworm (Protocol 1, DOSE 300), this molecule had an AW of 0.
In turn, `O=C1CN(Cc2ccc(Cl)s2)C(c2ccc(Cl)cc2)=NN1Cc1ccc(Cl)s1` [Compound 63] had an MTA in the experiment with Two-Spotted Spider Mite (Protocol 1, DOSE 150) of 0%.
Take `C#CCOC(=O)N1CC(=O)N(CCCC)N=C1c1cc(Cl)cc(Cl)c1` [Compound 133]: in the experiment with Sphaerotheca fuliginea, the “Cucumber Powdery Mildew … percent control” value amounted to 0 percent control. In the experiment with Two-Spotted Spider Mite (Protocol 1, DOSE 150), this molecule returned an MTA of 0%. Moreover, in the experiment with Pyricularia oryzae, the “Rice Blast … percent control” value turned out to be 80 percent control.
For the molecule `CCCCCCCCn1nc(-c2ccc(Cl)cc2)ncc1=O` [Compound 259], in the experiment on Sphaerotheca fuliginea, the “Cucumber Powdery Mildew … percent control” value was 75 percent control. Besides, in the experiment with Two-Spotted Spider Mite (Protocol 1, DOSE 150), the MTA was 0%. The “Rice Blast … percent control” value with Pyricularia oryzae amounted to 90 percent control.
Consider `O=C1CNC(c2ccc(Cl)cc2)=NN1CC(F)(F)F` [Compound 4, 1-(2,2,2-trifluoroethyl)-3-(4-chlorophenyl)-4,5-dihydro-1,2,4-triazin-6-one], for which the pest or weed control at 300 g/ha was 50% with Sphaerotheca fuliginea and 99% in the experiment with Pyricularia oryzae. For the same molecule, the BB with Mexican Bean Beetle (Protocol 1, DOSE 300) turned out to be 0. Further, the AW in the experiment with Southern Armyworm (Protocol 1, DOSE 300) worked out at 75.
As for `O=C1CNC(c2cc(Cl)cc(Cl)c2)=NN1CC1CC1` [Compound 109], the “Cucumber Powdery Mildew … percent control” value in the experiment with Sphaerotheca fuliginea was determined as 95 percent control. The molecule also came in with an MTA in the experiment on Two-Spotted Spider Mite (Protocol 1, DOSE 150) of 90%. In addition, the “Rice Blast … percent control” value in the experiment with Pyricularia oryzae is reported as 100 percent control.
For `O=C1CNC(c2ccc(Cl)c(Cl)c2)=NN1Cc1ccccc1` [Compound 103], in that order: 0 percent control, 23% and 90 percent control.
For the molecule `CCCSC1NC(c2ccc(Cl)cc2)=NN(CC(F)(F)F)C1=O` (stereo not shown) [Compound 19, 1-(2,2,2-trifluoroethyl)-3-(4-chlorophenyl)-5-propylthio-4,5-dihydro-1,2,4-triazin-6-one], the pest or weed control at 300 g/ha in the experiment on Sphaerotheca fuliginea is 75%; in the experiment with Pyricularia oryzae, 100%. This molecule also showed a BB in the experiment on Mexican Bean Beetle (Protocol 1, DOSE 150) of 100. In the experiment with Southern Armyworm (Protocol 1, DOSE 150), the AW was found to be 0.
For the molecule `C[Si](C)(C)Cn1nc(-c2ccc(Cl)cc2)ncc1=O` [Compound 265], in the experiment with Sphaerotheca fuliginea, the “Cucumber Powdery Mildew … percent control” value is given as 90 percent control. For the same molecule, in the experiment with Two-Spotted Spider Mite (Protocol 1, DOSE 150), the MTA was determined as 0%. Also, in the experiment with Pyricularia oryzae, the “Rice Blast … percent control” value came out at 85 percent control.
The matching figures for `CCCCCCCCCCn1nc(-c2ccc(Cl)cc2)ncc1=O` [Compound 260]: 0 percent control, 0% and 75 percent control.
For the molecule `O=C1CNC(c2ccc(Cl)cc2)=NN1` [Compound 5, 3-(4-Chlorophenyl)-4,5-dihydro-1,2,4-triazin-6-one], the pest or weed control at 300 g/ha amounted to 50% in the experiment with Sphaerotheca fuliginea and 75% in the experiment with Pyricularia oryzae. Moreover, in the experiment on Mexican Bean Beetle (Protocol 1, DOSE 300), the BB is 75. For the same molecule, the AW in the experiment with Southern Armyworm (Protocol 1, DOSE 600) is listed as 50.
Regarding `Cc1cccc(N2N=C(c3cccc(Cl)c3)NCC2=O)c1` [Compound 112], the “Cucumber Powdery Mildew … percent control” value in the experiment on Sphaerotheca fuliginea is reported as 80 percent control. The MTA in the experiment on Two-Spotted Spider Mite (Protocol 1, DOSE 150) is on record as 0%. Moreover, the “Rice Blast … percent control” value in the experiment with Pyricularia oryzae was determined as 85 percent control.
